Results taken from patent US7981879B2, “HIV integrase inhibitors” (Instituto di Ricerchi di Biologia Molecolare P. Angeletti …, priority 2005, dated 2011).
Like-named read-outs stand apart in the source and are kept apart here.

Test system: HIV
Assay: Assay for inhibition of HIV replication (spread assay): acute HIV infection of T-lymphoid cells
Assay type: cell-based
Settings: read-out: CIC95, inhibition of HIV replication
Method: Assays for the inhibition of acute HIV infection of T-lymphoid cells (alternatively referred to herein as the “spread assay”) were conducted in accordance with Vacca, J. P. et al., Proc. Natl. Acad. Sci. USA 1994, 91: 4096. […] The other compounds in Table 1 were tested in the spread assay up to 1 micromolar, but specific IC95 values were not obtained; i.e., the IC95 values were greater than 1 micromolar. It is believed, however, that the IC95 values of these compounds would be less than about 50 micromolar.

[1] = Human immunodeficiency virus 1, spread assay, T-lymphoid cells

| SMILES | IC95 [1] | IC95 (Human immunodeficiency virus 1, T-lymphoid) |
| --- | --- | --- |
| CSCC1NCCn2c1nc(C(=O)NCc1ccc(F)cc1)c(O)c2=O (centres unmarked) [Compound 27, N-(4-fluorobenzyl)-3-hydroxy-9-[(methylthio)methyl]-4-oxo-6,7,8,9-tetrahydro-4H-pyrazino[1,2-a]pyramidine-2-carboxamide] | < 1 µM | – |
| CN1CCn2c(nc(C(=O)NCc3ccc(F)cc3)c(O)c2=O)C(NC(=O)C(=O)N(C)C)C1 (centres unmarked) [Compound 160, N′-(2-{[(4-fluorobenzyl)amino]carbonyl}-3-hydroxy-8-methyl-4-oxo-4,6,7,8,9,10-hexahydropyrimido[1,2-d][1,4]diazepin-10-yl)-N,N-dimethylethanediamide] | < 1 µM | – |
| CC1(C)c2nc(C(=O)NCc3ccc(F)cc3)c(O)c(=O)n2CN1Cc1cccnc1 [Compound 6, N-(4-fluorobenzyl)-3-hydroxy-8,8-dimethyl-4-oxo-7-(pyridin-3-ylmethyl)-4,6,7,8-tetrahydroimidazo[1,5-a]pyrimidine-2-carboxamide] | < 1 µM | – |
| CN1CCn2c(nc(C(=O)NCc3ccc(F)cc3)c(O)c2=O)C1CS(C)(=O)=O (centres unmarked) [Compound 28, N-(4-fluorobenzyl)-3-hydroxy-8-methyl-9-[(methylsulfonyl)methyl]-4-oxo-6,7,8,9-tetrahydro-4H-pyrazino[1,2-a]pyrimidine-2-carboxamide] | 1 to 10 µM | – |
| CC(=O)N(C)C1CN(C)CCn2c1nc(C(=O)NCc1ccc(F)cc1)c(O)c2=O (centres unmarked) [Compound 170, 10-[acetyl(methyl)amino]-N-(4-fluorobenzyl)-3-hydroxy-8-methyl-4-oxo-4,6,7,8,9,10-hexahydropyrimido[1,2-d][1,4]diazepine-2-carboxamide] | < 1 µM | – |
| CC(=O)N1CCn2c(nc(C(=O)NCc3ccc(F)cc3)c(O)c2=O)C1COCc1ccccc1 (centres unmarked) [Compound 12, 8-acetyl-9-[(benzyloxy)methyl]-N-(4-fluorobenzyl)-3-hydroxy-4-oxo-6,7,8,9-tetrahydro-4H-pyrazino[1,2-a]pyrimidine-2-carboxamide] | 1 to 10 µM | – |
| CN1Cn2c(nc(C(=O)NCc3ccc(F)cc3)c(O)c2=O)C12CCCCC2 [Compound 1, N-(4-fluorobenzyl)-3′-hydroxy-7′-methyl-4′-oxo-6′,7′-dihydro-4′H-spiro[cyclohexane-1,8′-imidazo[1,5-a]pyrimidine]-2′-carboxamide] | – | < 1 µM |
| CN1CCn2c(nc(C(=O)NCc3ccc(F)cc3)c(O)c2=O)C(N(C)S(C)(=O)=O)C1 (centres unmarked) [Compound 163, N-(4-fluorobenzyl)-3-hydroxy-8-methyl-10-[methyl(methylsulfonyl)amino]-4-oxo-4,6,7,8,9,10-hexahydropyrimido[1,2-d][1,4]diazepine-2-carboxamide] | < 1 µM | – |
| CC(=O)N(CC(C)C)C1CN(C)CCn2c1nc(C(=O)NCc1ccc(F)cc1)c(O)c2=O (centres unmarked) [Compound 161, 10-[acetyl(isobutyl)amino]-N-(4-fluorobenzyl)-3-hydroxy-8-methyl-4-oxo-4,6,7,8,9,10-hexahydropyrimido[1,2-d][1,4]diazepine-2-carboxamide] | < 1 µM | – |
| O=C(NCc1ccc(F)cc1)c1nc2n(c(=O)c1O)CCNC21CCOCC1 [Compound 29, N-(4-fluorobenzyl)-3′-hydroxy-4′-oxo-2,3,5,6,7′,8′-hexahydro-4′H,6′H-spiro[pyran-4,9′-pyrazino[1,2-a]pyrimidine]-2′-carboxamide] | < 1 µM | – |
| CN1CCn2c(nc(C(=O)NCc3ccc(F)cc3)c(O)c2=O)C1COCc1ccccc1 (centres unmarked) [Compound 11, 9-[(benzyloxy)methyl]-N-(4-fluorobenzyl)-3-hydroxy-8-methyl-4-oxo-6,7,8,9-tetrahydro-4H-pyrazino[l,2-a]pyrimidine-2-carboxamide] | 1 to 10 µM | – |
| CC1(C)NS(=O)(=O)Cn2c1nc(C(=O)NCc1ccc(F)cc1)c(O)c2=O [Compound 105, N-(4-fluorobenzyl)-3-hydroxy-9,9-dimethyl-4-oxo-8,9-dihydro-4H-pyrimido[2,1-d][1,2,5]thiadiazine-2-carboxamide 7,7-dioxide] | 1 to 10 µM | – |
| CC1(C)NCCCn2c1nc(C(=O)NCc1ccc(F)cc1)c(O)c2=O [Compound 175, N-(4-fluorobenzyl)-3-hydroxy-10,10-dimethyl-4-oxo-4,6,7,8,9,10-hexahydropyrimido[1,2-a][1,4]diazepine-2-carboxamide] | < 1 µM | – |
| CC1c2nc(C(=O)NCc3ccc(F)cc3)c(O)c(=O)n2CCN1C (centres unmarked) [Compound 32, N-(4-fluorobenzyl)-3-hydroxy-8,9-dimethyl-4-oxo-6,7,8,9-tetrahydro-4H-pyrazino[1,2-a]pyrimidine-2-carboxamide] | < 1 µM | – |
| CN1CCCn2c(nc(C(=O)NCc3ccc(F)cc3)c(O)c2=O)C1(C)C [Compound 176, N-(4-fluorobenzyl)-3-hydroxy-9,10,10-trimethyl-4-oxo-4,6,7,8,9,10-hexahydropyrimido[1,2-a][1,4]diazepine-2-carboxamide] | < 1 µM | – |
| COC(=O)N(C)C1CN(C)CCn2c1nc(C(=O)NCc1ccc(F)cc1)c(O)c2=O (centres unmarked) [Compound 166, methyl (2-{[(4-fluorobenzyl)amino]carbonyl}-3-hydroxy-8-methyl-4-oxo-4,6,7,8,9,10-hexahydropyrimido[1,2-d][1,4]diazepin-10-yl)methylcarbamate] | < 1 µM | – |
| CN1CCn2c(nc(C(=O)NCc3ccc(F)cc3)c(O)c2=O)C(N(C)Cc2ccccc2)C1 (centres unmarked) [Compound 159, 10-[benzyl(methyl)amino]-N-(4-fluorobenzyl)-3-hydroxy-8-methyl-4-oxo-4,6,7,8,9,10-hexahydropyrimido[1,2-d][1,4]diazepine-2-carboxamide] | 1 to 10 µM | – |
| O=C(NCc1ccc(F)cc1)c1nc2n(c(=O)c1O)CCNC2COCc1ccccc1 (centres unmarked) [Compound 9, 9-[(benzyloxy)methyl]-N-(4-fluorobenzyl)-3-hydroxy-4-oxo-6,7,8,9-tetrahydro-4H-pyrazino[1,2-a]pyrimidine-2-carboxamide] | < 1 µM | – |
| CN1Cn2c(nc(C(=O)NCc3ccc(F)cc3)c(O)c2=O)C1(C)C [Compound 5, N-(4-fluorobenzyl)-3-hydroxy-7,8,8-trimethyl-4-oxo-4,6,7,8-tetrahydroimidazo[1,5-a]pyrimidine-2-carboxamide] | < 1 µM | – |
| CC(C)CNC1CN(C)CCn2c1nc(C(=O)NCc1ccc(F)cc1)c(O)c2=O (centres unmarked) [Compound 169, N-(4-fluorobenzyl)-3-hydroxy-10-(isobutylamino)-8-methyl-4-oxo-4,6,7,8,9,10-hexahydropyrimido[1,2-d][1,4]diazepine-2-carboxamide] | 1 to 10 µM | – |
| CN1Cn2c(nc(C(=O)NCc3ccc(F)cc3S(C)(=O)=O)c(O)c2=O)C1(C)C [Compound 2, N-[4-fluoro-2-(methylsulfonyl)benzyl]-3-hydroxy-7,8,8-trimethyl-4-oxo-4,6,7,8-tetrahydroimidazo[1,5-a]pyrimidine-2-carboxamide] | < 1 µM | – |
| CN1CCn2c(nc(C(=O)NCc3ccc(F)cc3)c(O)c2=O)C12CCOCC2 [Compound 30, N-(4-fluorobenzyl)-3′-hydroxy-8′-methyl-4′-oxo-2,3,5,6,7′,8′-hexahydro-4′H,6′H-spiro[pyran-4,9′-pyrazino[1,2-a]pyrimidine]-2′-carboxamide] | < 1 µM | – |
| CN(C)C(=O)CN1CCn2c(nc(C(=O)NCc3ccc(F)cc3)c(O)c2=O)C1(C)C [Compound 64, 8-[2-(dimethylamino)-2-oxoethyl]-N-(4-fluorobenzyl)-3-hydroxy-9,9-dimethyl-4-oxo-6,7,8,9-tetrahydro-4H-pyrazino[1,2-a]pyrimidine-2-carboxamide] | 1 to 10 µM | – |
